Test results as given in patent publication US20230150978A1, “QUINAZOLINONE DERIVATIVES AND USES THEREOF FOR TREATING A CANCER” (ENYO PHARMA, priority 2020, published 2023).
Read-outs that look alike come from different tables or passages of the source.

What was measured:
HMGB1 = HMGB1 release screen, Nano-Glo HiBiT extracellular detection; type: cell-based; details: extracellular luminescence
Method: Construction of pBiT3.1-HMGB1 Plasmid
(§1) HMGB1 derived from pCMV6-AC-GFP plasmid (ref. RG205918, Origene) was amplified by PCR using the following set of primers: Seq ID No 1: forward, 5′-[…]-3′; Seq ID No 2: reverse, 5′-[…]-3′. The PCR fragment was subsequently digested by EcoRI and XhoI (R3101S and R0146S respectively, New England Biolabs) and inserted between the EcoRI and XhoI sites in the plasmid pBiT3.1-C(ref. N237A, Promega). The resulting plasmid (pBiT3.1-HMGB1) was grown in NEB10-beta competent E. coli (ref. C3019I, New England Biolabs) and purified using the NucleoBond Xtra Midi Kit (ref. 740410, Macherey-Nagel).
Construction of HMGB1 Reporter Cell Line
(§2) pBiT3.1-HMGB1 was transfected in MDA-MB-231 cells (ref. ATCC HTB-2) using Lipofectamine 2000 reagent (ref. 11668, Invitrogen). Transfected cells were selected for blasticidin resistance (15 μg/ml, ref. Al 113903 Gibco) in medium containing DMEM 1× (ref. 1995065, Gibco) with 1% penicillin and streptomycin, and 10% fetal bovine serum.
Screen for HMGB1-Releasing Drugs
(§3) MDA-MB-231 cells stably expressing HMGB1-HiBiT (10^4 cells/well) were seeded into white 96-well plates (ref.3917, Corning) and allowed to recover for 24h. […] Mitoxantrone dihydrochloride (ref. M6545, Sigma-Aldrich) was used as a positive control. Extracellular translocation of HMGB1 was measured using the Nano-Glo HiBiT extracellular detection system (ref. N2422, Promega). Nano-Glo HiBiT Extracellular Reagent was prepared in advance, added to the well and incubated 10 min. Luminescence of the extracellular HMGB1-HiBiT was quantified using the Spark 20M spectrofluorimeter (TECAN)

Calreticulin = Calreticulin release (ER to plasma membrane translocation) screen, Nano-Glo HiBiT extracellular detection; type: cell-based; details: extracellular luminescence, read-out: CalR EC50
Method: as §1, with “Construction of pBiT3.1-Calreticulin Plasmid Calreticulin” for “HMGB1”, “pCMV6-AC” for “pCMV6-AC-GFP”, “SC320287,” for “RG205918,”, “3:” for “1:”, “4:” for “2:”, “(pBiT3.1-Calreticulin)” for “(pBiT3.1-HMGB1)”
Construction of Calreticulin Reporter Cell Line
as §2, with “pBiT3.1-Calreticulin” for “pBiT3.1-HMGB1”
Screen for Calreticulin-ER to Plasma Membrane Translocating Drugs
as §3, with “Calreticulin-HiBiT” for “HMGB1-HiBiT”, “Calreticulin” for “HMGB1”, “min.” for “min. Luminescence of the extracellular HMGB1-HiBiT was quantified using the Spark 20M spectrofluorimeter (TECAN)”
Luminescence of the extracellular Calreticulin-HiBiT was quantified using the Spark 20M spectrofluorimeter (TECAN).

[1] = MDA-MB-231 cells stably expressing HMGB1-HiBiT
[2] = MDA-MB-231 cells stably expressing Calreticulin-HiBiT
[3] = Homo sapiens, MDA-MB-231, MDA-MB-231 cells stably expressing HMGB1-HiBiT
[4] = Homo sapiens, MDA-MB-231, MDA-MB-231 cells stably expressing Calreticulin-HiBiT

EC50 (HMGB1; [1]) | EC50 (Calreticulin; [2]) | EC50 (HMGB1; [3]) | EC50 (Calreticulin; [4]) | Compound
0.207 µM | 0.172 µM | – | – | COc1ccc2nc(CN3CC(C)c4ccccc43)[nH]c(=O)c2c1 (single isomer, unassigned) [Ex. #4, 6-methoxy-2-[(3-methylindolin-1-yl)methyl]-3H-quinazolin-4-one]
– | – | 2 µM | 1.96 µM | COc1ccc2nc(CN3CCCN(C)c4ccccc43)[nH]c(=O)c2c1 [Ex. 23, 6-methoxy-2-[(1-methyl-3,4-dihydro-2H-1,5-benzodiazepin-5-yl)methyl]-3H-quinazolin-4-one]
– | – | 6.86 µM | 4.46 µM | COc1ccc2nc(CN3Cc4ccccc4C3)[nH]c(=O)c2c1 [Ex. #10, 2-(isoindolin-2-ylmethyl)-6-methoxy-3H-quinazolin-4-one]
– | – | 0.751 µM | 0.522 µM | COc1ccc2nc(CN3CCCc4cccc(Cl)c43)[nH]c(=O)c2c1 [Ex. #12, 2-[(8-chloro-3,4-dihydro-2H-quinolin-1-yl)methyl]-6-methoxy-3H-quinazolin-4-one]
– | – | 2.16 µM | 1.96 µM | COc1ccc2nc(CN3CCOc4cccc(OC)c43)[nH]c(=O)c2c1 [Ex. #14, 6-methoxy-2-[(5-methoxy-2,3-dihydro-1,4-benzoxazin-4-yl)methyl]-3H-quinazolin-4-one]
– | – | 9.36 µM | 2.06 µM | COc1ccc2nc(CN3CCc4c(Br)cccc4C3)[nH]c(=O)c2c1 [Ex. #18, 2-[(5-bromo-3,4-dihydro-1H-isoquinolin-2-yl)methyl]-6-methoxy-3H-quinazolin-4-one]
– | – | 10.2 µM | 7.36 µM | COc1ccc2nc(CN3CCc4cccc(OC)c4C3)[nH]c(=O)c2c1 [Ex. #19, 6-methoxy-2-[(8-methoxy-3,4-dihydro-1H-isoquinolin-2-yl)methyl]-3H-quinazolin-4-one]
– | – | 10.8 µM | 4.26 µM | COc1ccc2nc(CN3CCc4c(Cl)cccc4C3)[nH]c(=O)c2c1 [Ex. #20, 2-[(5-chloro-3,4-dihydro-1H-isoquinolin-2-yl)methyl]-6-methoxy-3H-quinazolin-4-one]
– | – | 1.01 µM | 1.8 µM | O=c1[nH]c(CN2CCc3ccccc32)nc2ccc(Cl)cc12 [Ex. #36, 6-chloro-2-(indolin-1-ylmethyl)-3H-quinazolin-4-one]
– | – | 3.55 µM | 1.76 µM | O=c1[nH]c(CN2CC3(CCCC3)c3ccccc32)nc2ccc(Cl)cc12 [Ex. #42, 6-chloro-2-(spiro[cyclopentane-1,3′-indoline]-1′-ylmethyl)-3H-quinazolin-4-one]
– | – | 4.66 µM | 1.21 µM | Cc1ccc2c(c1)N(Cc1nc3ccc(Cl)cc3c(=O)[nH]1)CC2 [Ex. #45, 6-chloro-2-[(6-methylindolin-1-yl)methyl]-3H-quinazolin-4-one]
– | – | 3.98 µM | 2.18 µM | O=c1[nH]c(CN2CCc3cc(F)ccc32)nc2ccc(Cl)cc12 [Ex. #47, 6-chloro-2-[(5-fluoroindolin-1-yl)methyl]-3H-quinazolin-4-one]
– | – | 11.6 µM | 4.66 µM | O=c1[nH]c(CN2Cc3ccccc3C2)nc2ccc(Cl)cc12 [Ex. #50, 6-chloro-2-(isoindolin-2-ylmethyl)-3H-quinazolin-4-one]
– | – | 10.8 µM | 11.3 µM | COc1ccc2c(c1)N(Cc1nc3ccc(Cl)cc3c(=O)[nH]1)CCC2 [Ex. #55, 6-chloro-2-[(7-methoxy-3,4-dihydro-2H-quinolin-1-yl)methyl]-3H-quinazolin-4-one]
– | – | 11.9 µM | 14.2 µM | O=c1[nH]c(CN2CCOc3ccccc32)nc2ccc(Cl)cc12 [Ex. #57, 6-chloro-2-(2,3-dihydro-1,4-benzoxazin-4-ylmethyl)-3H-quinazolin-4-one]

Second part, the compound before the results:

Compound | EC50 (HMGB1; [1]) | EC50 (Calreticulin; [2]) | EC50 (HMGB1; [3]) | EC50 (Calreticulin; [4])
COc1ccc2nc(CN3CC(C)c4ccccc43)[nH]c(=O)c2c1 (single isomer, unassigned) [Ex. #5, 6-methoxy-2-[(3-methylindolin-1-yl)methyl]-3H-quinazolin-4-one] | 3.46 µM | 2.31 µM | – | –
CC1CN(Cc2nc3ccc(Cl)cc3c(=O)[nH]2)c2ccccc21 (single isomer, unassigned) [Ex. #38, 6-chloro-2-[(3-methylindolin-1-yl)methyl]-3H-quinazolin-4-one] | 0.721 µM | 0.499 µM | – | –
CC1CN(Cc2nc3ccc(Cl)cc3c(=O)[nH]2)c2ccccc21 (single isomer, unassigned) [Ex. #39, 6-chloro-2-[(3-methylindolin-1-yl)methyl]-3H-quinazolin-4-one] | 10.4 µM | 8.06 µM | – | –
COc1ccc2nc(CN3CCc4ccccc43)[nH]c(=O)c2c1 [Ex. #1, 2-(indolin-1-ylmethyl)-6-methoxy-3H-quinazolin-4-one] | – | – | 2.72 µM | 0.231 µM
COc1ccc2nc(CN3CC(C)(C)c4ccccc43)[nH]c(=O)c2c1 [Ex. #2, 2-[(3,3-dimethylindolin-1-yl)methyl]-6-methoxy-3H-quinazolin-4-one] | – | – | 0.6 µM | 0.4 µM
COc1ccc2nc(CN3CCCc4ccccc43)[nH]c(=O)c2c1 [Ex. #15, 2-(3,4-dihydro-2H-quinolin-1-ylmethyl)-6-methoxy-3H-quinazolin-4-one] | – | – | 3.34 µM | 1.06 µM
COc1ccc2nc(CN3CCc4c(cccc4NS(C)(=O)=O)C3)[nH]c(=O)c2c1 [Ex. #21, N-[2-[(6-methoxy-4-oxo-3H-quinazolin-2-yl)methyl]-3,4-dihydro-1H-isoquinolin-5-yl]methanesulfonamide] | – | – | 11.2 µM | 3.96 µM
CC1Cc2ccccc2N1Cc1nc2ccc(Cl)cc2c(=O)[nH]1 (centres unmarked) [Ex. #41, 6-chloro-2-[(2-methylindolin-1-yl)methyl]-3H-quinazolin-4-one] | – | – | 9.61 µM | 8.01 µM
Cc1cccc2c1CCN2Cc1nc2ccc(Cl)cc2c(=O)[nH]1 [Ex. #43, 6-chloro-2-[(4-methylindolin-1-yl)methyl]-3H-quinazolin-4-one] | – | – | 1.15 µM | 1.07 µM
Cc1cccc2c1N(Cc1nc3ccc(Cl)cc3c(=O)[nH]1)CC2 [Ex. #44, 6-chloro-2-[(7-methylindolin-1-yl)methyl]-3H-quinazolin-4-one] | – | – | 1.33 µM | 1.26 µM
Cc1ccc2c(c1)CCN2Cc1nc2ccc(Cl)cc2c(=O)[nH]1 [Ex. #46, 6-chloro-2-[(5-methylindolin-1-yl)methyl]-3H-quinazolin-4-one] | – | – | 5.51 µM | 2.71 µM
O=c1[nH]c(CN2CCc3cc(Br)ccc32)nc2ccc(Cl)cc12 [Ex. #48, 2-[(5-bromoindolin-1-yl)methyl]-6-chloro-3H-quinazolin-4-one] | – | – | 6.06 µM | 5.96 µM
COc1cccc2c1N(Cc1nc3ccc(Cl)cc3c(=O)[nH]1)CC2 [Ex. #49, 6-chloro-2-[(7-methoxyindolin-1-yl)methyl]-3H-quinazolin-4-one] | – | – | 11.2 µM | 7.56 µM
O=c1[nH]c(CN2CCCc3ccccc32)nc2ccc(Cl)cc12 [Ex. #51, 6-chloro-2-(3,4-dihydro-2H-quinolin-1-ylmethyl)-3H-quinazolin-4-one] | – | – | 11.8 µM | 10.3 µM
COc1cccc2c1CCCN2Cc1nc2ccc(Cl)cc2c(=O)[nH]1 [Ex. #52, 6-chloro-2-[(5-methoxy-3,4-dihydro-2H-quinolin-1-yl)methyl]-3H-quinazolin-4-one] | – | – | 1.36 µM | 1.26 µM
Cc1cccc2c1CCCN2Cc1nc2ccc(Cl)cc2c(=O)[nH]1 [Ex. #53, 6-chloro-2-[(5-methyl-3,4-dihydro-2H-quinolin-1-yl)methyl]-3H-quinazolin-4-one] | – | – | 2.51 µM | 0.73 µM
